In paper PMC9471048, “The signaling and selectivity of α‐adrenoceptor agonists for the human α2A, α2B and α2C‐adrenoceptors and comparison with human α1 and β‐adrenoceptors” (Pharmacology Research & Perspectives, 2022):
Where two headings read alike, the source gives them in different places.

Experiments:
[1] = biological target: T1, human α2A‐adrenoceptor (Homo sapiens, UniProt P08913); details: for % inhibition, CRE-SPAP (with forskolin): from 3 μM forskolin control; for % inhibition, CRE‐SPAP (with forskolin): % inhibition from the 3 μM forskolin control, inhibition only
T1 sequence (P08913 1-465): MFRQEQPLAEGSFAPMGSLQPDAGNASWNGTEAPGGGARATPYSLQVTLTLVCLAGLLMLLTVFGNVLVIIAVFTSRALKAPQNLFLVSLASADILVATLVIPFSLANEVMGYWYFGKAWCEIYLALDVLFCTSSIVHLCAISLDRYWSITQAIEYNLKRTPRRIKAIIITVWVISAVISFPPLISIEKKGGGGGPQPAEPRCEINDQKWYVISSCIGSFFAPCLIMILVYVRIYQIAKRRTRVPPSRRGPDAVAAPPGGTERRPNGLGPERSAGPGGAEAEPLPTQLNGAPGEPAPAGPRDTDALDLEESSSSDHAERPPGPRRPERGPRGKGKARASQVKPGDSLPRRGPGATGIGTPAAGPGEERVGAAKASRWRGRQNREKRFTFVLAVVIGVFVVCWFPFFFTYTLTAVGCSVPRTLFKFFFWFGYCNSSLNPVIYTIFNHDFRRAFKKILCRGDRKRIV

[2] = biological target: T2, human α2C‐adrenoceptor (Homo sapiens, UniProt P18825)
T2 sequence (P18825 1-462): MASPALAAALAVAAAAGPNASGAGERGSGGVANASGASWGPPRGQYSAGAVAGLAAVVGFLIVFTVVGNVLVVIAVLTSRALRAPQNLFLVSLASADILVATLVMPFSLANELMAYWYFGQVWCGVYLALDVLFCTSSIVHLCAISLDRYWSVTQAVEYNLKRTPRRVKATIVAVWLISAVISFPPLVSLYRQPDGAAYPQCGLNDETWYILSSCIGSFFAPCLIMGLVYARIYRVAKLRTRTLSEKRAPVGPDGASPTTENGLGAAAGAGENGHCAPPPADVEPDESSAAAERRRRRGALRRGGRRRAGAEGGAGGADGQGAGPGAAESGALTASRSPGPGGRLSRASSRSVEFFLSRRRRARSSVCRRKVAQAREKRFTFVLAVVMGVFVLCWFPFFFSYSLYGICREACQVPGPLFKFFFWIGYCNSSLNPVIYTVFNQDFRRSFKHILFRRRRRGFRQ

[3] = biological target: T1, human α2A‐adrenoceptor; experiment: 3H‐rauwolscine whole cell binding in CHO‐α2A cells; parameters: expressed in transfected cells; host or cells: CHO-K1 with CRE-SPAP reporter
[4] = biological target: T2, human α2C‐adrenoceptor; experiment: 3H‐rauwolscine whole cell binding in CHO‐α2C cells; parameters: expressed in transfected cells; host or cells: CHO-K1 with CRE-SPAP reporter
[5] = biological target: T1, human α2A‐adrenoceptor; experiment: ERK1/2‐phosphorylation in CHO‐α2A cells; type: cell-based; parameters: expressed in transfected cells; host or cells: CHO-K1 with CRE-SPAP reporter
[6] = biological target: T2, human α2C‐adrenoceptor; experiment: ERK1/2‐phosphorylation in CHO‐α2C cells; type: cell-based; parameters: expressed in transfected cells; host or cells: CHO-K1 with CRE-SPAP reporter
[7] = CHO‐α2A (cell line 1), absence of forskolin
[8] = CHO‐α2A, binding KD / Gi IC50 of CRE‐SPAP
[9] = Log IC50 (Gi), CRE‐SPAP (with forskolin), CHO‐α2A (cell line 1, 5830 fmol/mg protein), 3 μM forskolin
[10] = CHO‐α2C cells, % inhibition from the 3 μM forskolin control, mean ± SEM
[11] = CHO‐α2C cells, CRE‐SPAP production in the absence of forskolin
[12] = CHO‐α2C cells, log KD from 3H‐rauwolscine binding versus CRE‐SPAP log IC50
[13] = Log IC50 (Gi), CRE‐SPAP (with forskolin), CHO‐α2C cells, inhibition of 3 μM forskolin‐stimulated CRE‐SPAP production, given as negative log IC50, mean ± SEM
[14] = 3H‐rauwolscine whole cell binding, living cells, negative log KD, mean ± SEM, read-out: Log KD, CHO‐α2A (converted)
[15] = CHO‐α2A, 3H‐rauwolscine whole cell binding, given as negative log KD, read-out: Log KD (binding) (converted)
[16] = fold, from KD values, 1 = no selectivity
[17] = 3H‐rauwolscine whole cell binding, living cells, negative log KD, mean ± SEM, read-out: Log KD, CHO‐α2C (converted)
[18] = CHO‐α2C cells, 3H‐rauwolscine whole cell binding, given as negative log KD, mean only (SEM in Table 4), read-out: Log KD (converted)
[19] = CHO‐α2A, maximum response compared to 10 μM PDBu
[20] = CHO‐α2A, read-out: Log EC50, ERK1/2‐phosphorylation (converted)
[21] = CHO‐α2C cells, maximum response compared to 10 μM PDBu, mean ± SEM
[22] = CHO‐α2C cells, given as negative log EC50, mean ± SEM, read-out: Log EC50, ERK1/2‐phosphorylation (converted)
[23] = read-out: Log KD (binding) (converted)
[24] = read-out: Log KD, CHO‐α2A (converted)

SMILES	Log EC50 (Gs), CRE‐SPAP (without forskolin) [2]	% 10 μM PDBu, ERK1/2‐phosphorylation [5]	% 10 μM PDBu, ERK1/2‐phosphorylation [6]	% inhibition, CRE‐SPAP (with forskolin) ([1]; CHO‐α2A (cell line 1))	Log EC50 (Gs), CRE‐SPAP (without forskolin) [1, 7]	Log efficacy ratio (KD/IC50) [1, 8]	% inhibition, CRE‐SPAP (with forskolin) [2, 10]	Log EC50 (Gs), CRE‐SPAP (without forskolin) [2, 11]	Log efficacy ratio (KD/IC50) [2, 12]	Kd [3, 15]	Selectivity ratio α2A vs α2B (higher affinity for α2A) [3, 16]	Kd [4, 17]	Kd [4, 18]	Selectivity ratio α2B vs α2C (higher affinity for α2C) [4, 16]	% 10 μM PDBu, ERK1/2‐phosphorylation [5, 19]	EC50 [5, 20]	% 10 μM PDBu, ERK1/2‐phosphorylation [6, 21]	EC50 [6, 22]	IC50 [1]	IC50 [2]	also measured
CN[C@@H](C)[C@H](O)c1ccccc1 [Ephedrine]	No response	123.1 ± 17.3%	88.0 ± 12.5%																		Log EC50 (Gs), CRE‐SPAP (without forskolin) [1]: No response; Log IC50 (Gi), CRE‐SPAP (with forskolin) [1]: No response; Log IC50 (Gi), CRE‐SPAP (with forskolin) [2]: No response; Kd [3]: 34.7 µM; Selectivity ratio α2A vs α2B (higher affinity for α2A) [3]: 4.2; Selectivity ratio α2A vs α2C (higher affinity for α2A) [3]: 1.1; Kd ([3]; Log KD, CHO‐α2A): 34.7 µM; Kd [4]: 39.8 µM; Selectivity ratio α2B vs α2C (higher affinity for α2C) [4]: 3.6; Kd ([4]; Log KD, CHO‐α2C): 39.8 µM; EC50 [5]: 16.6 µM; EC50 [6]: 33.1 µM
c1ccc2c(CC3=NCCN3)cccc2c1 [Naphazoline]				83.1 ± 3.6%	No response	0.78	81.3 ± 4.2%	No response	0.72	0.0977 µM	16.2	0.398 µM	0.398 µM	4.0	118.1 ± 9.0%	0.00191 µM	157.8 ± 12.6%	0.0126 µM			% inhibition, CRE-SPAP (with forskolin) ([1]; CHO-α2A cell line 2, 4724 fmol/mg protein): 69.4 ± 5.8%; % inhibition, CRE-SPAP (with forskolin) ([1]; CHO-α2A cell line 3, 121 fmol/mg protein): 24.8 ± 4.3%; IC50 ([1]; Log IC50 (Gi), CRE-SPAP (with forskolin), CHO-α2A cell line 2, expression 4724 fmol/mg protein, 3 μM forskolin): 0.0575 µM; IC50 ([1]; Log IC50 (Gi), CRE-SPAP (with forskolin), CHO-α2A cell line 3, expression 121 fmol/mg protein, 3 μM forskolin): 0.417 µM; IC50 [1, 9]: 0.0162 µM; IC50 [2, 13]: 0.0759 µM; Kd [3, 14]: 0.0977 µM; Selectivity ratio α2A vs α2C (higher affinity for α2A) [3, 16]: 4.1
Cc1cccc(C)c1N=C1NCCCS1 [Xylazine]	No response	128.3 ± 15.7%	168.2 ± 22.8%																0.288 µM	0.178 µM	EC50 [1]: 8.51 µM; Log EC50 (Gs), CRE‐SPAP (without forskolin) [1]: No response; Log efficacy ratio (KD/IC50) [1]: 1.60; % inhibition, CRE‐SPAP (with forskolin) [2]: 81.8 ± 3.6%; Log efficacy ratio (KD/IC50) [2]: 1.53; Kd [3]: 11.5 µM; Kd ([3]; Log KD, CHO‐α2A): 11.5 µM; Kd [4]: 6.03 µM; Selectivity ratio α2A vs α2C (higher affinity for α2C) [4]: 1.9; Selectivity ratio α2B vs α2C (higher affinity for α2C) [4]: 1.0; Kd ([4]; Log KD, CHO‐α2C): 6.03 µM; EC50 [5]: 0.0302 µM; EC50 [6]: 0.0724 µM
CC(CCc1ccc(O)cc1)NCCc1ccc(O)c(O)c1 (centres unmarked) [Dobutamine]					No response			No response				5.5 µM	5.5 µM			2 µM		0.759 µM		20.9 µM	Log IC50 (Gi), CRE‐SPAP (with forskolin) ([1]; CHO‐α2A (cell line 1, 5830 fmol/mg protein), 3 μM forskolin): No response; Kd [3, 23]: 20.4 µM; Kd [3, 24]: 20.4 µM
C[C@H](N)[C@H](O)c1cccc(O)c1 [Metaraminol]				87.0 ± 1.3%	No response	1.22	85.5 ± 1.8%	No response	1.56		1.5	28.8 µM	28.8 µM	2.7	136.4 ± 13.9%	0.24 µM	158.8 ± 22.2%	0.158 µM	3.16 µM	0.794 µM	Kd [3, 23]: 52.5 µM; Kd [3, 24]: 52.5 µM; Selectivity ratio α2A vs α2C (higher affinity for α2C) [4, 16]: 1.8
Cc1cccc([C@H](C)c2cnc[nH]2)c1C [Dexmedetomidine]	No response	138.5 ± 15.4%	153.0 ± 18.5%																		% 3 μM forskolin, CRE‐SPAP (without forskolin) [1]: 23.6 ± 2.7%; % inhibition, CRE‐SPAP (with forskolin) [2]: 73.4 ± 4.4%; IC50 ([2]; Log IC50 (Gi), CRE‐SPAP (with forskolin)): 0.000692 µM; higher affinity for α2 than α1‐adrenoceptor subtypes [3]: 100 fold; Kd ([4]; read-out: Log KD (converted)): 0.0302 µM; Kd ([4]; read-out: Log KD, CHO‐α2C (converted)): 0.0302 µM; EC50 ([6]; read-out: Log EC50, ERK1/2‐phosphorylation (converted)): 0.000263 µM
NCC(O)c1ccc(O)cc1 (centres unmarked) [Octopamine]				98.1 ± 5.7%	No response		86.3 ± 5.2%	No response		417 µM					124.1 ± 11.7%	4.79 µM	153.8 ± 17.9%	7.76 µM	132 µM	52.5 µM	Kd ([3]; 3H‐rauwolscine whole cell binding, ^app: apparent KD, IC50 from extrapolated curve as not all specific binding was inhibited, read-out: Log KD (apparent), CHO‐α2A (converted)): 417 µM; IC50 ([4]; 3H‐rauwolscine whole cell binding, no KD obtained, read-out: IC50 in binding, CHO‐α2C): ~1000 µM
c1ccc2c(c1)CCCC2C1=NCCN1 (centres unmarked) [Tetrahydrozoline]				69.3 ± 7.2%	No response	1.18	60.7 ± 3.2%	No response	0.40	0.324 µM	17.4	0.851 µM	0.851 µM	6.6	123.0 ± 12.8%	0.00363 µM	139.6 ± 19.8%	0.126 µM			IC50 [1, 9]: 0.0214 µM; IC50 [2, 13]: 0.339 µM; Kd [3, 14]: 0.324 µM; Selectivity ratio α2A vs α2C (higher affinity for α2A) [3, 16]: 2.6
c1ccc(C2CC2)c(OCC2=NCCN2)c1 [Cirazoline]				43.6 ± 4.4%	No response	−0.16	74.2 ± 2.1%	No response	0.41	0.417 µM	16.2	0.851 µM	0.851 µM	7.9	113.0 ± 14.3%	0.158 µM	139.1 ± 10.2%	0.0832 µM	0.603 µM		IC50 [2, 13]: 0.331 µM; Kd [3, 14]: 0.417 µM; Selectivity ratio α2A vs α2C (higher affinity for α2A) [3, 16]: 2.0
